{"source": "patent US20070112018A1", "about": "“Treatment of peripheral arterial occlusive disease” (priority 2005, published 2007)", "key": {"[1]": {"settings": "human, in vivo", "protocol": "In another study, three dose levels of rifalazil were administered for the treatment of non-gonococcal urethritis in 170 male patients. Doses used were in this study were single-doses of 2.5, 12.5 mg and 25 mg. Males were between 18-45 years of age with signs or symptoms of urethritis, including urethral discharge."}, "[2]": {"experiment": "Single 25 mg rifalazil with Ortho-Novum 1/35 in post-menopausal female volunteers, adverse events", "settings": "human, in vivo", "protocol": "In another study, a single oral dose of 25 mg rifalazil was administered and its effects on ethinyl estradiol and norethindrone levels administered as the contraceptive Ortho-Novum 1/35® in 16 healthy post-menopausal female volunteers for 14 days was determined. The incidence of AEs was similar between the two treatment periods, with 13 (93%) of the 14 subjects included in the safety population experiencing at least 1 AE during dosing with Ortho-Novum 1/35 alone and 12 (86%) during dosing with rifalazil and Ortho-Novum 1/35. Overall, 4 (29%) subjects experienced at least 1 AE considered by the Investigator to be at least possibly related to rifalazil. The most commonly reported rifalazil-related events were nausea (4 subjects, 29%); headache (3 subjects, 21%); and loose stools, feeling hot, rigors, and myalgia (2 subjects each, 14%).\nThe majority of AEs were of mild or moderate intensity. One subject experienced myalgia of severe intensity during dosing with rifalazil and Ortho-Novum 1/35 that was assessed as probably related to study medication. […] Two subjects withdrew from the study because of AEs during the Ortho-Novum 1/35 only dosing period; neither subject received rifalazil."}, "[3]": {"experiment": "Healthy volunteers, 25 or 50 mg once a week for 4 weeks, adverse events", "type": "in vivo, human", "protocol": "In one study, healthy volunteers received 25 or 50 mg once a week for 4 weeks. The overall incidence of AEs was 33% after the first weekly dose, 12% after the second and third weekly dose, and 0% at the fourth weekly dose. No subject discontinued the study due to AEs, and no serious AEs were reported in this study. The predominant AEs reported in the rifalazil group but not in the placebo group included: back pain (2/6. 33%), chills (3/6, 50%), neck pain (1/6. 17%), insomnia, and a range of gastrointestinal (GI) disturbances such as anorexia, nausea, thirst and vomiting (all in 1/6 patients, 17%).\nThe lowest individual value for subjects receiving 25 mg/week was 2.2×10^3/mm^3 (Day 25), and for 50-mg/week subjects, 2.3×10^3/mm^3 (Day 11). All values returned to baseline within 2 weeks of cessation of dosing. […] The above normal values at 50 mg/week occurred in 1 subject, and were of moderate Grade 2 severity during the interval from approximately Day 15 to Day 78. […] All values returned to baseline levels within 2 weeks of cessation of dosing.\nThe phenomenon of accommodation or tolerance with repeat weekly dosing of rifalazil became evident during the course of the study for both the 25-mg and 50-mg doses. In the 25-mg dosage group, the peak incidence of AEs occurred in the first week and decreased substantially over the remaining weeks."}, "[4]": {"experiment": "physchem", "type": "physicochemical", "protocol": "Rifalazil is a highly lipophilic molecule having limited solubility in water at physiological pH (approximately 200 ng/mL). Evidence of the highly lipophilic behavior of the molecule is illustrated in the partition coefficient (n-octanol:water) of between 70, 569 and over 900,000 in different experiments (Log P range; 4.9-5.9)."}, "[5]": {"experiment": "Non-clinical oral pharmacokinetics in the beagle dog", "type": "in vivo", "protocol": "(§1) In rats and dogs, the Vdβ/F following oral administration was 40-80 L/kg. […] The highest mean Cmax observed was in the wall of the GI tract and occurred approximately 1 hour post-dose. […] A large tissue compartment of rifalazil is considered important for efficacy against Chlamydia given the intracellular nature of Chlamydia infection."}, "[6]": {"experiment": "Tissue distribution in rats after a single oral dose (Study 6510-109)", "type": "in vivo, rat", "settings": "for Kp: oral, 3 mg/kg, species not given", "protocol": "Distribution to the majority of tissues was higher than observed plasma levels.\nas §1"}, "[7]": {"tested_on": "C. trachomatis", "experiment": "Cell culture protection against re-infection with C. trachomatis", "type": "cell-based", "settings": "single doses in cell culture"}}, "note": "Where two headings read alike, the source gives them in different places."}
{"smiles": "CO[C@H]1/C=C/O[C@@]2(C)Oc3c(C)c(O)c4c(=O)c(c5oc6cc(N7CCN(CC(C)C)CC7)cc(O)c6nc-5c4c3C2=O)NC(=O)/C(C)=C\\C=C\\[C@H](C)[C@H](O)[C@@H](C)[C@@H](O)[C@@H](C)[C@H](OC(C)=O)[C@@H]1C", "note": "[rifalazil, 3′-hydroxy-5′-(4-isobutyl-1-piperazinyl) benzoxazinorifamycin]", "values": [{"measurement": "deaths, serious AEs, or discontinuations due to AEs", "setting": "[1]", "value": "No deaths, serious AEs, or discontinuations due to AEs"}, {"measurement": "incidence of AEs considered possibly related to study drug", "setting": "[1]; male", "value": 23, "unit": "%"}, {"measurement": "incidence of clinically significant laboratory abnormalities", "setting": "[1]; male", "value": 21, "unit": "%"}, {"measurement": "subjects experiencing at least 1 AE", "setting": "[2]; female", "value": 86, "unit": "%"}, {"measurement": "deaths or other serious AEs", "setting": "[2]", "value": "No deaths or other serious AEs"}, {"measurement": "subjects with transient Grade 3 decreases in absolute lymphocyte count (ALC<0.5×10^3/mm^3)", "setting": "[2]", "value": "two"}, {"measurement": "subjects with low WBC counts", "setting": "[3]; 25 mg/week", "value": "three of six"}, {"measurement": "tolerability", "setting": "[3]; 25 mg/week", "value": "fairly well tolerated"}, {"measurement": "lowest individual WBC value", "setting": "[3]; 25 mg/week, Day 25", "value": "2.2×10^3 /mm^3"}, {"measurement": "subjects with low WBC counts", "setting": "[3]; 50 mg/week", "value": "6 of 8"}, {"measurement": "tolerability", "setting": "[3]; 50 mg/week", "value": "not considered well tolerated"}, {"measurement": "lowest individual WBC value", "setting": "[3]; 50 mg/week, Day 11", "value": "2.3×10^3 /mm^3"}, {"measurement": "mean AST and ALT values", "setting": "[3]; 50 mg/week, not in the 25 mg/week group", "value": "transient increase"}, {"measurement": "subjects with Grade 4 lymphocyte toxicity", "setting": "[3]; 25-mg/week", "value": 1, "unit": "subject"}, {"measurement": "time for WBC values to return to baseline after cessation of dosing", "setting": "[3]; 25 and 50 mg/week", "value": "≤ 2", "unit": "weeks"}, {"measurement": "subjects with Grade 4 lymphocyte toxicity", "setting": "[3]; 50-mg/week", "value": 3, "unit": "subjects"}, {"measurement": "overall incidence of AEs", "setting": "[3]; after the first weekly dose", "value": 33, "unit": "%"}, {"measurement": "overall incidence of AEs", "setting": "[3]; after the second and third weekly dose", "value": 12, "unit": "%"}, {"measurement": "overall incidence of AEs", "setting": "[3]; at the fourth weekly dose", "value": 0, "unit": "%"}, {"measurement": "neck pain", "setting": "[3]; rifalazil group (1/6)", "value": 17, "unit": "%"}, {"measurement": "back pain", "setting": "[3]; rifalazil group (2/6)", "value": 33, "unit": "%"}, {"measurement": "chills", "setting": "[3]; rifalazil group (3/6)", "value": 50, "unit": "%"}, {"measurement": "insomnia, anorexia, nausea, thirst and vomiting (each)", "setting": "[3]; rifalazil group (all in 1/6 patients)", "value": 17, "unit": "%"}, {"measurement": "asthenia", "setting": "[3]; rifalazil-treated groups", "value": 33, "unit": "%"}, {"measurement": "dizziness", "setting": "[3]; rifalazil-treated groups", "value": 50, "unit": "%"}, {"measurement": "fever", "setting": "[3]; rifalazil-treated groups", "value": 67, "unit": "%"}, {"measurement": "headache", "setting": "[3]; rifalazil-treated groups", "value": 67, "unit": "%"}, {"measurement": "pain", "setting": "[3]; rifalazil-treated groups", "value": 50, "unit": "%"}, {"measurement": "partition coefficient (n-octanol:water)", "setting": "[4]", "value": "70, 569-900,000"}, {"measurement": "logP", "setting": "[4]; n-octanol:water, different experiments, read-out: Log P range", "value": "4.9 to 5.9"}, {"measurement": "solubility", "setting": "[4]; pH 7.4, aqueous buffer, physiological pH, read-out: solubility in water", "value": "~0.2", "unit": "µg/mL"}, {"measurement": "Vdβ/F", "setting": "[5]; dogs, oral administration", "value": "40 to 80", "unit": "L/kg"}, {"measurement": "bioavailability", "setting": "[5]; plasma, po, beagle dog, 10 mg/kg", "value": "16 to 17", "unit": "%"}, {"measurement": "Kp", "setting": "[6]; rat, liver, read-out: tissue to plasma ratio (AUC), liver", "value": 33.7}, {"measurement": "Kp", "setting": "[6]; rat, testes, read-out: tissue to plasma ratio (AUC), testes", "value": 4.9}, {"measurement": "concentration at 1 h", "setting": "[6]; rat, wall of the GI tract, rats, single oral 3 mg/kg, at 1 hour", "value": 5400, "unit": "ng/g"}, {"measurement": "tissue concentration, spleen", "setting": "[6]; rats, single oral 3 mg/kg, at 8-12 hours post dose", "value": "5.1-9.3 μg/gm"}, {"measurement": "duration of protective effect against re-infection with C. trachomatis", "setting": "[7]", "value": "up to 12 days"}]}
